Reference: PubChem BioAssay AID1963958 (Molecular Pharmacology Branch, DTP, NCI, 2024)

System: MDA-MB-231 multicell spheroids, viability
Test: Anticancer human tumor MDA-MB-231 cell line growth inhibition [PI3K];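 also: spheroids exposed to agents for seven days before reading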;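 as to viability, T/C: percent of vehicle control luminescence with DMSO treated spheroids as 100%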
Conditions: for IC50: curve of first compound; for viability, T/C: stronger effect = lower value; active = viability on the fitted dose curve at most 10% of control; inactive = the rest
Text: Combinatorial screen of targeted agents with the PI3K inhibitors inavolisib, alpelisib, duvelisib, and copanlisib in multi-cell type tumor spheroids
A high-throughput screen of multi-cell type tumor spheroids was designed to identify active combinations of targeted small molecules and PI3K pathway inhibitors. Complex spheroids include a stromal component modeled by human endothelial cells (HUVEC) and fibroblasts modeled by human mesenchymal stem cells (MSCs). The concentration ranges selected for each drug and investigational agent were based upon clinically achievable concentrations if the clinical Cmax of the agent was known.
Compounds. The drugs and investigational agents: inavolisib (NSC800729), alpelisib (NSC765974), duvelisib (NSC772469), copanlisib (NSC816437), ipatasertib (NSC767898), afuresertib (NSC778305), talazoparib (NSC767125), sapanisertib (NSC764658), selumetinib (NSC741078), tovorafenib (DAY101, NSC766906), vemurafenib (NSC761431), ravoxertinib (NSC781343), sotorasib (NSC818433), MRTX1133 (NSC 836407), abemaciclib (NSC 768073), palbociclib (NSC758247), venetoclax (NSC 766270), SY5609 (NSC837396), enzalutamide (NSC755605), and darolutamide (NSC825331), were obtained from the National Cancer Institute (NCI) Developmental Therapeutics Program Chemical Repository. The FDA-approved anticancer drug set is available from the NCI Developmental Therapeutics Program. […] The stock solutions were prepared in dimethyl sulfoxide (DMSO, Sigma-Aldrich, St. Louis, MO, cat. D2650) at 800-fold the tested concentration and stored at -70 degrees C prior to their use. All drugs and investigational agents were tested over a range starting from a high concentration at or near the clinical Cmax and decreasing in half-log increments. If the clinical Cmax for an agent had not been determined, the highest concentration tested was 10 microM.
Cell Culture. All cells were maintained in an incubator at 37 degrees C and 5% CO2 with 95% humidity. The PDC lines were cultured according to standard operating procedures established by the NCI PDMR (https://pdmr.cancer.gov/sops/default.htm). All PDCs were thawed and cultured in Matrigel-coated flasks prepared with a working solution of 1X Ham's F-12 nutrient mix, without supplementation (Invitrogen, Waltham, MA, cat. 11765054), 100 U/mL penicillin-streptomycin (Invitrogen, cat. 15140122), and 2.5% Matrigel (Corning Inc., Corning, NY, cat. 354248) for the first three passages. The 354836-022-R-J1-PDC, 475296-252-R-J1-PDC, and 997726-040-R-J2-PDC lines were cultured in 6A media, which includes advanced DMEM/F-12 (Thermo Fisher Scientific, cat. 12634028), 10 mM HEPES (Thermo Fisher Scientific, cat. 15630080), 1X GlutaMAX supplement (Thermo Fisher Scientific, cat. 35050061), 0.1 mg/mL primocin (InvivoGen, San Diego, CA, cat. ant-pm-2), 10% defined fetal bovine serum, heat inactivated (HyClone Laboratories Inc., Logan, UT, cat. SH30070.03HI), 50% L-WRN conditioned media (ATCC, cat. CRL-3276), 1.25 mM N-Acetyl-L-cysteine (Sigma-Aldrich, cat. A9165), 10 mM nicotinamide (Sigma-Aldrich, cat. N0636), 1X B-27 supplement (Thermo Fisher Scientific, cat. 17504044), 1X N-2 supplement (Thermo Fisher Scientific, cat. 17502048), and 10 microM Y-27632 dihydrochloride (Tocris Bioscience, Bristol, United Kingdom, cat. 1254). The 624824-186-R-J2-PDC line was cultured in 6C/Colon 1B media, which includes all 6A media components plus 50 ng/mL human EGF recombinant protein (Thermo Fisher Scientific, cat. PHG0311). […]

[1] = second compound 0.00316 µM, first compound 0.0316 µM
[2] = second compound 0.00316 µM, first compound 0.1 µM
[3] = second compound 0.00316 µM, first compound 0.316 µM
[4] = second compound 0.00316 µM, first compound 1 µM
[5] = second compound 0.00316 µM, first compound 3.16 µM
[6] = second compound 0.00316 µM, first compound 10 µM
[7] = second compound 0.01 µM, first compound 0.0316 µM
[8] = second compound 0.01 µM, first compound 0.1 µM
[9] = second compound 0.01 µM, first compound 0.316 µM
[10] = second compound 0.01 µM, first compound 1 µM
[11] = second compound 0.01 µM, first compound 3.16 µM
[12] = second compound 0.01 µM, first compound 10 µM
[13] = second compound 0.0316 µM, first compound 0.0316 µM
[14] = second compound 0.0316 µM, first compound 0.1 µM
[15] = second compound 0.0316 µM, first compound 0.316 µM
[16] = second compound 0.0316 µM, first compound 1 µM
[17] = second compound 0.0316 µM, first compound 3.16 µM
[18] = second compound 0.0316 µM, first compound 10 µM
[19] = second compound 0.1 µM, first compound 0.0316 µM
[20] = second compound 0.1 µM, first compound 0.1 µM
[21] = second compound 0.1 µM, first compound 0.316 µM
[22] = second compound 0.1 µM, first compound 1 µM
[23] = second compound 0.1 µM, first compound 3.16 µM
[24] = second compound 0.1 µM, first compound 10 µM
[25] = second compound 0.316 µM, first compound 0.0316 µM
[26] = second compound 0.316 µM, first compound 0.1 µM
[27] = second compound 0.316 µM, first compound 0.316 µM
[28] = second compound 0.316 µM, first compound 1 µM
[29] = second compound 0.316 µM, first compound 3.16 µM
[30] = second compound 0.316 µM, first compound 10 µM
[31] = second compound 1 µM, first compound 0.0316 µM
[32] = second compound 1 µM, first compound 0.1 µM
[33] = second compound 1 µM, first compound 0.316 µM
[34] = second compound 1 µM, first compound 1 µM
[35] = second compound 1 µM, first compound 3.16 µM
[36] = second compound 1 µM, first compound 10 µM

CC1(C)CCC(CN2CCN(c3ccc(C(=O)NS(=O)(=O)c4ccc(NCC5CCOCC5)c([N+](=O)[O-])c4)c(Oc4cnc5[nH]ccc5c4)c3)CC2)=C(c2ccc(Cl)cc2)C1 + CC(Nc1ccc2c(c1)OCCn1cc(N3C(=O)OCC3C(F)F)nc1-2)C(N)=O
inactive: viability, T/C [1] 95.8% | viability, T/C [2] 92.2% | viability, T/C [3] 104% | viability, T/C [4] 111% | viability, T/C [5] 105% | viability, T/C [6] 25.5% | viability, T/C [7] 94.1% | viability, T/C [8] 99.1% | viability, T/C [9] 94.9% | viability, T/C [10] 96.4% | viability, T/C [11] 92.2% | viability, T/C [12] 31.8% | viability, T/C [13] 83.8% | viability, T/C [14] 77.5% | viability, T/C [15] 79.3% | viability, T/C [16] 85.8% | viability, T/C [17] 86.6% | viability, T/C [18] 29.5% | viability, T/C [19] 77.2% | viability, T/C [20] 69.1% | viability, T/C [21] 71.4% | viability, T/C [22] 69.6% | viability, T/C [23] 69.8% | viability, T/C [24] 28.2% | viability, T/C [25] 64% | viability, T/C [26] 64.6% | viability, T/C [27] 61.1% | viability, T/C [28] 66.4% | viability, T/C [29] 70.6% | viability, T/C [30] 21.4% | viability, T/C [31] 64.9% | viability, T/C [32] 60.2% | viability, T/C [33] 60.8% | viability, T/C [34] 60.2% | viability, T/C [35] 65.5% | viability, T/C [36] 18.3%
7.07 µM: IC50 (second compound 0.01 µM)
6.41 µM: IC50 (second compound 0.0316 µM)
5.45 µM: IC50 (second compound 0.1 µM)
4.36 µM: IC50 (second compound 1 µM)
4.72 µM: IC50 (second compound 0.316 µM)
6.9 µM: IC50 (second compound 0.00316 µM)

C[C@@H](NC(=O)c1ncnc(N)c1Cl)c1ncc(C(=O)Nc2cc(C(F)(F)F)c(Cl)cn2)s1 + CC(Nc1ccc2c(c1)OCCn1cc(N3C(=O)OCC3C(F)F)nc1-2)C(N)=O
1.36 µM: IC50 (second compound 0.1 µM)
3.49 µM: IC50 (second compound 0.0316 µM)
0.337 µM: IC50 (second compound 1 µM)
0.625 µM: IC50 (second compound 0.316 µM)
> 10 µM: IC50 (second compound 0.00316 µM) | IC50 (second compound 0.01 µM)
inactive: viability, T/C [1] 119% | viability, T/C [2] 93% | viability, T/C [3] 86.7% | viability, T/C [4] 86.9% | viability, T/C [5] 73.9% | viability, T/C [6] 50.6% | viability, T/C [7] 111% | viability, T/C [8] 94.2% | viability, T/C [9] 81.7% | viability, T/C [10] 72.1% | viability, T/C [11] 68.2% | viability, T/C [12] 49% | viability, T/C [13] 91.3% | viability, T/C [14] 75.1% | viability, T/C [15] 66.1% | viability, T/C [16] 62.7% | viability, T/C [17] 52.3% | viability, T/C [18] 40.8% | viability, T/C [19] 83% | viability, T/C [20] 66.4% | viability, T/C [21] 58.8% | viability, T/C [22] 54.1% | viability, T/C [23] 48.3% | viability, T/C [24] 32.6% | viability, T/C [25] 77.8% | viability, T/C [26] 66.3% | viability, T/C [27] 54.8% | viability, T/C [28] 45.6% | viability, T/C [29] 41% | viability, T/C [30] 33% | viability, T/C [31] 67.4% | viability, T/C [32] 55.4% | viability, T/C [33] 49.5% | viability, T/C [34] 44.8% | viability, T/C [35] 38.4% | viability, T/C [36] 28.8%
